B1: Fas ligand: pro-apoptotic factor, death domain receptor ligand (Oncogene Research) (protein, UniProt P48023 130-281, looked up)
Tumor necrosis factor ligand …: QIGHPSPPPEKKELRKVAHLTGKSNSRSMPLEWEDTYGIVLLSGVKYKKGGLVINETGLYFVYSKVYFRGQSCNNLPLSHKVYMRNSKYPQDLVMMEGKMMSYCTTGQMWARSSYLGAVFNLTSADHLYVNVSELSLVNFEESQTFFGLYKL

Legend:
[1] = test system: infra-renal abdominal aorta; test: Morphological analysis of intima/media ratios 28 days after in vivo stent implantation; parameters: species or system New Zealand White rabbits; settings: 28 days after stent implantation, stent-based local release from microspheres, 0.25% cholesterol diet
Description: Microsphere Preparation. Biodegradable poly(lactic-co-glycolic-acid)-polyethylene glycol (PLGA/PEG) microspheres were prepared as a modification of previously described techniques. […] Additionally, a pH buffer of 7.4 was incorporated to limit local pH changes in order to stabilize incorporated drugs and render the microspheres more biocompatible. During the microsphere manufacturing process, 2.0 mg of the angiogenesis inhibitor angiostatin (Calbiochem, La Jolla, Calif.) in […] phosphate buffered saline was added to the polymer solution. Control microspheres (blank microspheres) containing polymer and buffer without any drug were also prepared. Stents were prepared as above. In Vivo Stent Implantation. Age-matched adult male New Zealand White rabbits weighing 3.8–4.2 kg were used in accordance to NIH and institutional guidelines (n=6 animals per group). Under general anesthesia, an arteriotomy at the femoral artery was performed and a 5 Fr introducing sheath was placed. Under fluoroscopic guidance, aseptically prepared channeled stents filled with blank or angiostatin microspheres were deployed in the infra-renal abdominal aorta. Stents were post-dilated at 8 atm with a 5 mm angioplasty balloon (Jupiter, Cordis, Miami, Fla.) to a final lumen size of 125% above the baseline with care taken to ensure that […] were present within the stent segment. Pre- and post-deployment digital subtraction angiograms were recorded for the blank procedural control and angiostatin treatment groups. The rabbits were fed a 0.25% cholesterol diet after the intervention. Early 7 day follow up (n=3 per group) or late 28 day follow-up (n=3 per group) animals underwent total-body perfusion-fixation as previously described with immediate excision of the aortic segment containing stent. The 7 day aortic specimens were excised longitudinally and stents were removed. The resulting aortic segments were divided into two equal subsegments. One subsegment of each underwent fixation in 10% neutral buffered formalin and embedded in paraffin-for light microscopic and morphologic analysis. The remaining subsegment of each specimen was snap frozen for molecular assay. The 28 days aortic specimens were fixed in 10% neutral buffered formalin and were embedded in PolyBed (Polysciences, Warrington, Pa.) for light microscopic and morphologic analysis. Morphological Analysis of Intima/Media (I/M) Ratios. The seven day analysis consisted of thick (5 μm) cross sections of the aortic wall were obtained from the paraffin-embedded specimens (n=9 sections per group). An elastic von Gieson-Masson trichrome or Elastica van Gieson-Hematoxylin double stain was performed for light microscopic analysis. For the 28 day specimen analysis (n=3 animals per group), each plastic-embedded aorta with stents was cut into five pieces longitudinally equal lengths. These pieces were stained by modified Verhoff elastic staining. Five cross sectional images of the stained aorta were obtained (n=15 sections per group) from one side of plastic pieces. […] Using Image Pro Plus software (Media Cybernetics, Silver Spring, Md.), the cross-sectional area of the intima and the media were determined by blinded observers. The ratio of intima area to media area subsequently tabulated for each, with the results presented as Table 2. Mean, standard error, and significance were determined.

[2] = test system: infra-renal abdominal aorta; test: Local plaque stability parameters: macrophage infiltrate and endothelial density (CD31); format: in vivo, New Zealand White rabbits; settings: 7 days after stent implantation
Description: In Vivo Stent Implantation. Age-matched adult male New Zealand White rabbits weighing 3.8–4.2 kg were used in accordance to NIH and institutional guidelines (n=6 animals per group). Under general anesthesia, an arteriotomy at the femoral artery was performed and a 5 Fr introducing sheath was placed. Under fluoroscopic guidance, aseptically prepared channeled stents filled with blank or angiostatin microspheres were deployed in the infra-renal abdominal aorta. Stents were post-dilated at 8 atm with a 5 mm angioplasty balloon (Jupiter, Cordis, Miami, Fla.) to a final lumen size of 125% above the baseline with care taken to ensure that […] were present within the stent segment. Pre- and post-deployment digital subtraction angiograms were recorded for the blank procedural control and angiostatin treatment groups. […]
Evaluation of Local Plaque Stability Parameters: Macrophage Infiltrate and Endothelial Density. Cross sections at the 7 day time point evaluated above were obtained (two per segment) from each vessel and incubated with a primary monoclonal antibody to rabbit macrophage (clone RAM-11, 1/800 dilution, DAKO, Carpinteria, Calif.). The number of positive cells per cross section was counted by a blinded observer. […] Mean and standard error were tabulated for each group with significance determined as before and p values as reported.

Molecule	Intima to media ratio (ratio of intimal area to medial area, mean ± SE) [1]	Number of plaque microvessels (CD31) per cross section (mean ± SE) [2]	Number of cross-sectional macrophages (mean ± SE) ([2]; RAM-11 positive cells per cross section) [P = 0.0011]
FGF: acidic FGF (Calbiochem) loaded with endotoxin-free heparin as a stabilizer	1.634 ± 0.051	–	–
CN1CCC[C@H]1c1cccnc1 [Nicotine, S-3-(1-methyl-2-pyrrolidinyl)pyridine, reference compound]	1.377 ± 0.060	–	–
CCC[C@H](N[C@@H](C)C(=O)N1[C@H](C(=O)O)C[C@@H]2CCCC[C@@H]21)C(=O)O [ATIIr, perindoprilate, reference compound]	1.730 ± 0.090	–	–
AAT: elastase inhibitor alpha-1-antitrypsin (Calbiochem)	1.322 ± 0.060	–	–
Angiostatin	1.610 ± 0.050	0.111 ± 0.111	34.889 ± 3.948
TGFβ1: transforming growth factor β1 (Oncogene Research)	1.803 ± 0.053	–	–
CCNCCN(CC)N(O)N=O [NO, N-Ethyl-2-(1-ethyl-2-hydroxy-2-nitrosohydrazino) ethanamine, reference compound]	1.338 ± 0.051	–	–
B1	1.356 ± 0.053	–	–

Source: US7048939B2, “Methods for the inhibition of neointima formation” (The Board of Trustees of the Leland Stanford Junior …, priority 2001, dated 2006)
